According to patent US20230040182A1, “ARYL HETEROBICYCLIC COMPOUNDS AS Kv1.3 POTASSIUM SHAKER CHANNEL BLOCKERS” (priority 2019, published 2023):

What follows are molecules tested against T1, hERG channel (Homo sapiens, UniProt Q12809) (assay: hERG electrophysiology, automated whole-cell patch clamp (Patchliner)). Details: CHO-K1 cells stably expressing hERG; whole-cell current, Hill fit.
T1 construct: expressed in transfected cells
Type: cell-based
Protocol: Example 10. Evaluation of hERG Activities
This assay is used to evaluate the disclosed compounds' inhibition activities against the hERG channel.
CHO-K1 cells stably expressing hERG were grown in Ham's F-12 Medium with Glutamine containing 10% heat-inactivated FBS, 1% Penicillin/Streptomycin, Hygromycin (100 μg/ml) and G418 (100 μg/ml). Cells were grown in culture flasks at 37° C. in a 5% CO2-humidified incubator.
(§1) The cells were bathed in an extracellular solution containing 140 mM NaCl, 4 mM KCl, 2 mM CaCl2), 1 mM MgCl2, 5 mM Glucose, 10 mM HEPES; pH adjusted to 7.4 with NaOH; 295-305 mOsm. The internal solution contained 50 mM KCl, 10 mM NaCl, 60 mM KF, 20 mM EGTA, 10 mM HEPES; pH adjusted to 7.2 with KOH; 285 mOsm. All compounds were dissolved in DMSO at 30 mM. Compound stock solutions were freshly diluted with external solution to concentrations of 30 nM, 100 nM, 300 nM, 1 μM, 3 μM, 10 μM, 30 μM and 100 μM. The highest content of DMSO (0.3%) was present in 100 μM.
The voltage protocol (see Table B) was designed to simulate voltage changes during a cardiac action potential with a 300 ms depolarization to +20 mV (analogous to the plateau phase of the cardiac action potential), a repolarization for 300 ms to −50 mV (inducing a tail current) and a final step to the holding potential of −80 mV. The pulse frequency was 0.3 Hz. Control (compound-free) and compound pulse trains for each compound concentration applied contained 70 pulses.
(§2) Whole-cell current recordings and compound application were enabled by means of an automated patch clamp platform Patchliner (Nanion). EPC 10 patch clamp amplifier (HEKA) along with Patchmaster software (HEKA Elektronik Dr. Schulze GmbH) was used for data acquisition. Data were sampled at 10 kHz without filtering. Increasing compound concentrations were applied consecutively to the same cell without washouts in between.
(§3) AUC and PEAK values were obtained with Patchmaster (HEKA Elektronik Dr. Schulze GmbH). To determine IC50 the last single pulse in the pulse train corresponding to a given compound concentration was used. Obtained AUC and PEAK values in the presence of compound were normalized to control values in the absence of compound. Using Origin (OridinLab), IC50 was derived from data fit to Hill equation: Icompound/Icontrol=(100−A)/(1+([compound]/IC50)nH)+A, where IC50 is the concentration at which current inhibition is half-maximal, [compound] is the applied compound concentration, A is the fraction of current that is not blocked and nH is the Hill coefficient.

T1 sequence (Q12809 whole entry): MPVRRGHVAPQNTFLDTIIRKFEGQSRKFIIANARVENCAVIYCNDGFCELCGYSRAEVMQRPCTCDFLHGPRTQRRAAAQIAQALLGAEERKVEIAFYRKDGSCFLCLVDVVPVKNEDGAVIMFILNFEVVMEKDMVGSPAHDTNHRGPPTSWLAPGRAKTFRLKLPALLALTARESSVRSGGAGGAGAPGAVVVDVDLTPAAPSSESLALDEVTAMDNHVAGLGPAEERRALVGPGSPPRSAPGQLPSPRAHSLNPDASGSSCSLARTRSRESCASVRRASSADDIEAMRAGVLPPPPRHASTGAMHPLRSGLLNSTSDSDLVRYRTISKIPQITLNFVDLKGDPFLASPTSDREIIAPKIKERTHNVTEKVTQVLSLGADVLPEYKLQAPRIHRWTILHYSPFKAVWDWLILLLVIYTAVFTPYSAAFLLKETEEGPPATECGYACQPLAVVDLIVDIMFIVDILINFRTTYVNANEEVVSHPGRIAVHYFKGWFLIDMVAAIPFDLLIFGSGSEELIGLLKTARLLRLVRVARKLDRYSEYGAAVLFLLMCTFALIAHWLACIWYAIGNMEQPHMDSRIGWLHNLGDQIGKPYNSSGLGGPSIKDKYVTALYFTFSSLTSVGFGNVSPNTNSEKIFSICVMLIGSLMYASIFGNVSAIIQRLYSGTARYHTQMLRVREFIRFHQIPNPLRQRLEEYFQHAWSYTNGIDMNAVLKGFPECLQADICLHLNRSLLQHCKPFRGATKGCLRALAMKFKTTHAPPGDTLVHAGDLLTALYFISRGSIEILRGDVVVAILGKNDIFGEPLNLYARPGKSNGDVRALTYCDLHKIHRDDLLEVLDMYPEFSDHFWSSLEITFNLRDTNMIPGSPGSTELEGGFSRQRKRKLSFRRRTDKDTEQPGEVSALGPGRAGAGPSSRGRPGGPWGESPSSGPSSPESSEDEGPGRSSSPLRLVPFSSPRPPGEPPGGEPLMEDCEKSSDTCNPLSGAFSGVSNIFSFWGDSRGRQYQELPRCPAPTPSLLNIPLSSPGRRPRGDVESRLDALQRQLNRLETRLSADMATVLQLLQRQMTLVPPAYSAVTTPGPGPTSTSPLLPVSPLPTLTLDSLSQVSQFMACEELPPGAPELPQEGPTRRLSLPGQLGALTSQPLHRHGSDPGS

O=C1[C@@H]2C[C@H](c3c(O)ccc(Cl)c3Cl)CCN2C(=O)CN1CCO (relative stereo) [Compound 7, (8R,9aS)-rel-8-(2,3-dichloro-6-hydroxyphenyl)-2-(2-hydroxyethyl)hexahydro-4H-pyrido[1,2-a]pyrazine-1,4(6H)-dione] and O=C1[C@H]2C[C@H](c3c(O)ccc(Cl)c3Cl)CCN2C(=O)CN1CCO (relative stereo) [Compound 18, (8R,9aR)-rel-8-(2,3-dichloro-6-hydroxyphenyl)-2-(2-hydroxyethyl)-hexahydropyrido[1,2-a]pyrazine-1,4-dione] cannot be ordered by IC50: over 30 µM for the first, over 30 µM for the second.

O=C1[C@@H]2C[C@H](c3c(O)ccc(Cl)c3Cl)CCN2C(=O)CN1C1CC(O)C1 (relative stereo) [Compound 20, (8R,9aS)-rel-8-(2,3-dichloro-6-hydroxyphenyl)-2-(3-hydroxycyclobutyl)-hexahydropyrido[1,2-a]pyrazine-1,4-dione] and Cc1cc(O)c([C@@H]2CCN3C(=O)[C@@H](CO)NC(=O)[C@@H]3C2)c(Cl)c1Cl (relative stereo) [Compound 22, (8R,9aS)-rel-8-(2,3-dichloro-6-hydroxy-4-methylphenyl)-3-((3R)-hydroxymethyl)-hexahydro-2H-pyrido[1,2-a]pyrazine-1,4-dione] cannot be ordered by IC50: over 30 µM for the first, over 30 µM for the second.

What follows are molecules tested against T2, Kv1.3 potassium channel (Homo sapiens, UniProt P22001) (assay: Kv1.3 potassium channel blocker activity, automated whole-cell patch clamp (Patchliner)). Details: CHO-K1 cells stably expressing Kv1.3; whole-cell current, Hill fit.
T2 construct: expressed in transfected cells
T2 sequence (P22001 whole entry): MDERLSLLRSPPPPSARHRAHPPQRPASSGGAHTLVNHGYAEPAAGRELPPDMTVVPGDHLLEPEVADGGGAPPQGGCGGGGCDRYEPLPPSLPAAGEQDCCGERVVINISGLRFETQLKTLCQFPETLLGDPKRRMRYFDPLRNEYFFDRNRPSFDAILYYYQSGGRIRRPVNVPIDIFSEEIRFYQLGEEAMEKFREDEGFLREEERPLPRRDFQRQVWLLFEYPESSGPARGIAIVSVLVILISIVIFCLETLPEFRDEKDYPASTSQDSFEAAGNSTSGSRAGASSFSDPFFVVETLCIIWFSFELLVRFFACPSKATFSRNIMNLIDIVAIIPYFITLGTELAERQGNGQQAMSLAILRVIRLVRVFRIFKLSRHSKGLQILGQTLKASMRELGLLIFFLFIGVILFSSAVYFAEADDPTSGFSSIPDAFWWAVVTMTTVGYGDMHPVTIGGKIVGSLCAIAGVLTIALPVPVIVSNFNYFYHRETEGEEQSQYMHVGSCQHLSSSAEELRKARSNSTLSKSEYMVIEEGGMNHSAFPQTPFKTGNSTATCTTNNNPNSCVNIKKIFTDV
Type: cell-based
Protocol: Example 9. Evaluation of Kv1.3 Potassium Channel Blocker Activities
This assay is used to evaluate the disclosed compounds' activities as Kv1.3 potassium channel blockers.
CHO-K1 cells stably expressing Kv1.3 were grown in DMEM containing 10% heat-inactivated FBS, 1 mM Sodium Pyruvate, 2 mM L-Glutamine and G418 (500 μg/ml). Cells were grown in culture flasks at 37° C. in a […] incubator.
as §1, with “CaCl2,” for “CaCl2),”
The currents were evoked by applying 100 ms depolarizing pulses from −90 mV (holding potential) to +40 mV were applied with 0.1 Hz frequency. Control (compound-free) and compound pulse trains for each compound concentration applied contained 20 pulses. 10-second breaks were used between pulse trains (see Table A below).
as §2, with “(Nanion Technologies GmbH).” for “(Nanion).”, “(HEKA Elektronik Dr. Schulze GmbH)” for “(HEKA)”, “filtering. Passive leak currents were subtracted online using a P/4 procedure (HEKA Elektronik Dr. Schulze GmbH).” for “filtering.”, “between. Total compound incubation time before the next pulse train was not longer than 10 seconds. Peak current inhibition was observed during compound equilibration.” for “between.”
as §3, with “AUC and peak values were” for “AUC and PEAK values were”, “To determine IC50, the last” for “To determine IC50 the last”, “AUC and peak values in” for “AUC and PEAK values in”, “where IC50 value is the” for “where IC50 is the”

O=C1[C@@H]2C[C@H](c3c(O)ccc(Cl)c3Cl)CCN2C(=O)CN1CCO (relative stereo) [Compound 7, (8R,9aS)-rel-8-(2,3-dichloro-6-hydroxyphenyl)-2-(2-hydroxyethyl)hexahydro-4H-pyrido[1,2-a]pyrazine-1,4(6H)-dione] and O=C1[C@H]2C[C@H](c3c(O)ccc(Cl)c3Cl)CCN2C(=O)CN1CCO (relative stereo) [Compound 18, (8R,9aR)-rel-8-(2,3-dichloro-6-hydroxyphenyl)-2-(2-hydroxyethyl)-hexahydropyrido[1,2-a]pyrazine-1,4-dione] cannot be ordered by IC50: under 1 µM for the first, under 1 µM for the second.

O=C1[C@@H]2C[C@H](c3c(O)ccc(Cl)c3Cl)CCN2C(=O)CN1C1CC(O)C1 (relative stereo) [Compound 20, (8R,9aS)-rel-8-(2,3-dichloro-6-hydroxyphenyl)-2-(3-hydroxycyclobutyl)-hexahydropyrido[1,2-a]pyrazine-1,4-dione] and O=C1[C@@H]2C[C@@H](O)CN2C(=O)[C@@H]2C[C@H](c3c(O)ccc(Cl)c3Cl)CCN12 [Compound 43, (2R,5aS,7R,11aS)-7-(2,3-dichloro-6-hydroxyphenyl)-2-hydroxyhexahydro-1H-pyrido[1,2-a]pyrrolo[1,2-d]pyrazine-5,11(5aH,11aH)-dione] cannot be ordered by IC50: under 1 µM for the first, under 10 µM for the second.

Cc1cc(O)c([C@@H]2CCN3C(=O)[C@@H](CO)NC(=O)[C@@H]3C2)c(Cl)c1Cl (relative stereo) [Compound 22, (8R,9aS)-rel-8-(2,3-dichloro-6-hydroxy-4-methylphenyl)-3-((3R)-hydroxymethyl)-hexahydro-2H-pyrido[1,2-a]pyrazine-1,4-dione] and O=C1N[C@H](CO)C(=O)N2CC[C@H](c3c(O)cc(Cl)c(Cl)c3Cl)C[C@H]12 [Compound 66, (8S,9aR)3-((3R)-hydroxymethyl)-8-(2,3,4-trichloro-6-hydroxyphenyl)-hexahydro-2H-pyrido[1,2-a]pyrazine-1,4-dione] cannot be ordered by IC50: under 1 µM for the first, under 10 µM for the second.

CC(C)[C@@H](O)[C@@H]1NC(=O)[C@@H]2C[C@H](c3c(O)ccc(Cl)c3Cl)CCN2C1=O [Compound 42, (3S,8R,9aS)-8-(2,3-dichloro-6-hydroxyphenyl)-3-[(1R)-1-hydroxy-2-methylpropyl]-hexahydro-2H-pyrido[1,2-a]pyrazine-1,4-dione] and CC(C)[C@H](O)[C@H]1NC(=O)[C@H]2C[C@@H](c3c(O)ccc(Cl)c3Cl)CCN2C1=O [Compound 61, (3R,8S,9aR)-8-(2,3-dichloro-6-hydroxyphenyl)-3-[(1S)-1-hydroxy-2-methylpropyl]-hexahydro-2H-pyrido[1,2-a]pyrazine-1,4-dione] cannot be ordered by IC50: under 1 µM for the first, under 10 µM for the second.

O=C1N[C@@H](CO)C(=O)N2CC[C@H](c3c(O)ccc(Cl)c3Cl)C[C@H]12 [Compound 46, (3S,8S,9aR)-8-(2,3-dichloro-6-hydroxyphenyl)-3-(hydroxymethyl)hexahydro-4H-pyrido[1,2-a]pyrazine-1,4(6H)-dione] and O=C1N[C@H](CO)C(=O)N2CC[C@H](c3c(O)ccc(Cl)c3Cl)C[C@H]12 [Compound 57, (3R,8S,9aR)-8-(2,3-dichloro-6-hydroxyphenyl)-3-(hydroxymethyl)hexahydro-4H-pyrido[1,2-a]pyrazine-1,4(6H)-dione] cannot be ordered by IC50: under 10 µM for the first, under 10 µM for the second.

CC1(C)NC(=O)C2CC(c3c(O)ccc(Cl)c3Cl)CCN2C1=O (stereo not drawn) [Compound 47, 8-(2,3-dichloro-6-hydroxyphenyl)-3,3-dimethyl-octahydro-1H-pyrido[1,2-a]pyrazine-1,4-dione] and C[C@H]1NC(=O)[C@H]2C[C@@H](c3c(O)ccc(Cl)c3Cl)CCN2C1=O [Compound 62, (3R,8S,9aR)-8-(2,3-dichloro-6-hydroxyphenyl)-3-methyl-hexahydro-2H-pyrido[1,2-a]pyrazine-1,4-dione] cannot be ordered by IC50: under 10 µM for the first, under 10 µM for the second.

CC(C)[C@H]1NC(=O)[C@H]2C[C@@H](c3c(O)ccc(Cl)c3Cl)CCN2C1=O [Compound 48, (8S,9aR)-8-(2,3-dichloro-6-hydroxyphenyl)-3-(3R)-isopropyl-hexahydro-2H-pyrido[1,2-a]pyrazine-1,4-dione] and CC(C)[C@H]1NC(=O)[C@@H]2C[C@H](c3c(O)ccc(Cl)c3Cl)CCN2C1=O [Compound 54, (8R,9aS)-8-(2,3-dichloro-6-hydroxyphenyl)-3-(3R)-isopropyl-hexahydro-2H-pyrido[1,2-a]pyrazine-1,4-dione] cannot be ordered by IC50: under 10 µM for the first, under 1 µM for the second.

CC[C@H]1NC(=O)[C@@H]2C[C@H](c3c(O)ccc(Cl)c3Cl)CCN2C1=O [Compound 51, (8R,9aS)-8-(2,3-dichloro-6-hydroxyphenyl)-3-(3R)-ethyl-hexahydro-2H-pyrido[1,2-a]pyrazine-1,4-dione] and O=C1N[C@H](CCO)C(=O)N2CC[C@H](c3c(O)ccc(Cl)c3Cl)C[C@H]12 [Compound 63, (3R,8S,9aR)-8-(2,3-dichloro-6-hydroxyphenyl)-3-(2-hydroxyethyl)-hexahydro-2H-pyrido[1,2-a]pyrazine-1,4-dione] cannot be ordered by IC50: under 30 µM for the first, under 30 µM for the second.

O=C1NCC(=O)N2CC[C@H](c3c(O)ccc(Cl)c3Cl)C[C@H]12 [Compound 56, (8S,9aR)-8-(2,3-dichloro-6-hydroxyphenyl)hexahydro-4H-pyrido[1,2-a]pyrazine-1,4(6H)-dione] and C[C@H](O)[C@H]1NC(=O)[C@H]2C[C@@H](c3c(O)ccc(Cl)c3Cl)CCN2C1=O [Compound 67, (3R,8S,9aR)-8-(2,3-dichloro-6-hydroxyphenyl)-3-[(1S)-1-hydroxyethyl]-hexahydro-2H-pyrido[1,2-a]pyrazine-1,4-dione] cannot be ordered by IC50: under 10 µM for the first, under 10 µM for the second.

O=C1[C@H]2C[C@@H](O)CN2C(=O)[C@H]2C[C@@H](c3c(O)ccc(Cl)c3Cl)CCN12 [Compound 59, (2R,5aR,7S,11aR)-7-(2,3-dichloro-6-hydroxyphenyl)-2-hydroxyhexahydro-1H-pyrido[1,2-a]pyrrolo[1,2-d]pyrazine-5,11(5aH,11aH)-dione] and O=C1N[C@H](CCO)C(=O)N2CC[C@@H](c3c(O)ccc(Cl)c3Cl)C[C@@H]12 [Compound 70, (3R,8R,9aS)-8-(2,3-dichloro-6-hydroxyphenyl)-3-(2-hydroxyethyl)-hexahydro-2H-pyrido[1,2-a]pyrazine-1,4-dione] cannot be ordered by IC50: under 10 µM for the first, under 1 µM for the second.
